Data from the supplement of paper PMC10307832.

Columns and labels:
Experiment in all cases: relative viability (nuclei count vs DMSO), 5 days (fraction); higher = more cells survive
[1] = compound: C[C@@]1(C(=O)Nc2ccc(F)nc2)CCCN1c1nc(Nc2cc(C3CC3)n[nH]2)c2cccn2n1 + CS(=O)(=O)N1CCN(Cc2cc3nc(-c4cccc5[nH]ncc45)nc(N4CCOCC4)c3s2)CC1 [Pictilisib] (partner 1 µM)
In short: (§1)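 Cells from lung cancer lines were seeded into 1536-well plates and, one day later, dosed by pin tool. Treatments were either a single drug or a fixed dose of an anchor drug with five library-drug doses (not always all listed) in √10 steps. After 5 days, nuclei were stained in a one-step fixation (final 0.05% Triton X-100, 1% formaldehyde, 1 ug/ml Hoechst) and counted on 4× images, and relative viability is the treated-to-vehicle nuclei ratio, as the median of duplicate plates.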

[2] = compound: CC1(C)CNc2cc(NC(=O)c3cccnc3NCc3ccncc3)ccc21 [Motesanib] + O=C(c1cc(Cc2n[nH]c(=O)c3ccccc23)ccc1F)N1CCN(C(=O)C2CC2)CC1 [Olaparib] (partner 8 µM)
In short: as §1

[3] = compound: CC1(C)CNc2cc(NC(=O)c3cccnc3NCc3ccncc3)ccc21 [Motesanib] + CCNC(=O)c1noc(-c2cc(C(C)C)c(O)cc2O)c1-c1ccc(CN2CCOCC2)cc1 [Luminespib] (partner 0.01 µM)
In short: as §1

[4] = compound: C[C@@]1(C(=O)Nc2ccc(F)nc2)CCCN1c1nc(Nc2cc(C3CC3)n[nH]2)c2cccn2n1 + NC(=O)Nc1cc(-c2cccc(F)c2)sc1C(=O)N[C@H]1CCCNC1 [AZD7762] (partner 0.2 µM)
In short: as §1

| Cell Line | relative viability ([1]; first compound 0.04 µM) | relative viability ([1]; first compound 0.1265 µM) | relative viability ([1]; first compound 0.4 µM) | relative viability ([1]; first compound 1.265 µM) | relative viability ([2]; first compound 0.01 µM) | relative viability ([2]; first compound 0.03162 µM) | relative viability ([2]; first compound 0.1 µM) | relative viability ([2]; first compound 0.3162 µM) | relative viability ([2]; first compound 1 µM) | relative viability ([3]; first compound 0.01 µM) | relative viability ([3]; first compound 0.03162 µM) | relative viability ([3]; first compound 0.1 µM) | relative viability ([3]; first compound 0.3162 µM) | relative viability ([3]; first compound 1 µM) | relative viability ([4]; first compound 0.04 µM) | relative viability ([4]; first compound 0.1265 µM) | relative viability ([4]; first compound 0.4 µM) | relative viability ([4]; first compound 1.265 µM) |
| --- | --- | --- | --- | --- | --- | --- | --- | --- | --- | --- | --- | --- | --- | --- | --- | --- | --- | --- |
| NCI-H1975 | 0.226 | 0.211 | 0.188 | 0.197 | 0.756 | 0.667 | 0.761 | 0.682 | 0.781 | 0.275 | 0.203 | 0.224 | 0.261 | 0.361 | 0.64 | 0.98 | 0.498 | 0.532 |
| CAL-12T | 0.41 | 0.395 | 0.463 | 0.304 | 0.674 | 0.731 | 0.699 | 0.683 | 0.736 | 0.371 | 0.375 | 0.195 | 0.567 | 0.175 | 0.659 | 0.765 | 0.78 | 0.677 |
| NCI-H1623 |  |  |  |  |  |  |  |  |  | 0.605 | 0.506 | 0.49 | 0.306 | 0.515 |  |  |  |  |
| HCC-44 | 0.532 | 0.386 | 0.841 | 0.328 | 0.944 | 0.926 | 1.07 | 1.09 | 0.95 | 1.07 | 0.964 | 0.884 | 1.24 | 1.2 | 1.02 | 0.954 | 0.989 | 0.979 |
| EKVX | 0.354 | 0.328 | 0.33 | 0.409 | 0.74 | 0.809 | 0.776 | 0.904 | 0.944 | 0.847 | 0.836 | 0.833 | 0.877 | 0.826 | 0.671 | 0.505 | 0.489 | 0.578 |
| NCI-H1651 | 0.484 | 0.447 | 0.39 | 0.538 | 0.176 | 0.192 | 0.213 | 0.202 | 0.201 | 0.673 | 0.89 | 0.8 | 0.921 | 0.892 | 0.52 | 0.371 | 0.409 | 0.447 |
| NCI-H1944 | 0.29 | 0.323 | 0.283 | 0.316 | 0.444 | 0.4 | 0.432 | 0.46 | 0.428 | 0.79 | 0.785 | 0.749 | 0.772 | 0.78 | 0.53 | 0.497 | 0.419 | 0.354 |
| NCI-H1703 | 0.25 | 0.224 | 0.227 | 0.213 | 0.442 | 0.305 | 0.318 | 0.223 | 0.232 |  |  |  |  |  | 0.145 | 0.111 | 0.13 | 0.12 |
| Calu-6 | 0.965 | 0.833 | 0.695 | 0.425 | 0.56 | 0.603 | 0.456 | 0.546 | 0.536 |  |  |  |  |  |  |  |  |  |
| EBC-1 | 0.32 | 0.231 | 0.241 | 0.162 | 0.732 | 0.674 | 0.694 | 0.729 | 0.783 |  |  |  |  |  |  |  |  |  |
| SW 1573 | 0.438 | 0.251 | 0.377 | 0.455 | 0.504 | 0.485 | 0.42 | 0.588 | 0.504 | 0.152 | 0.266 | 0.207 | 0.323 | 0.335 |  |  |  |  |
| A-427 | 0.79 | 0.679 | 0.739 | 0.705 | 0.78 | 0.7 | 0.672 | 0.732 | 0.777 | 0.872 | 1.05 | 0.769 | 1.24 | 1.05 | 0.64 | 0.642 | 0.647 | 0.427 |
| NCI-H2347 | 0.595 | 0.6 | 0.516 | 0.776 | 0.536 | 0.507 | 0.559 | 0.537 | 0.596 | 0.858 | 0.254 | 0.5 | 0.48 | 0.4 | 0.68 | 0.765 | 0.731 | 0.672 |
| NCI-H1355 | 0.428 | 0.462 | 0.332 | 0.439 | 0.726 | 0.771 | 0.773 | 0.747 | 0.707 | 0.719 | 0.659 | 0.658 | 0.77 | 0.637 | 0.694 | 0.579 | 0.539 | 0.598 |
| NCI-H358 | 0.259 | 0.237 | 0.173 | 0.277 | 0.507 | 0.652 | 0.626 | 0.658 | 0.633 | 0.317 | 0.333 | 0.402 | 0.479 | 0.369 | 0.389 | 0.392 | 0.171 | 0.282 |
| PC-3 [JPC-3] | 0.784 | 0.595 | 0.708 | 0.644 | 1.14 | 1.18 | 1.2 | 1.18 | 1.16 | 0.686 | 0.745 | 0.683 | 0.597 | 0.733 | 0.7 | 0.689 | 0.551 | 0.415 |
| NCI-H2228 | 0.216 | 0.175 | 0.198 | 0.246 | 0.794 | 0.74 | 0.668 | 0.838 | 0.749 | 0.19 | 0.148 | 0.228 | 0.142 | 0.163 |  |  |  |  |
